In ChEMBL document CHEMBL2016576, “Design, synthesis and structure-activity-relationship of 1,5-tetrahydronaphthyridines as CETP inhibitors” (Bioorg Med Chem Lett, 2012):

Target: T1, Cholesteryl ester transfer protein (Homo sapiens, UniProt P11597)
T1 sequence (P11597 whole entry): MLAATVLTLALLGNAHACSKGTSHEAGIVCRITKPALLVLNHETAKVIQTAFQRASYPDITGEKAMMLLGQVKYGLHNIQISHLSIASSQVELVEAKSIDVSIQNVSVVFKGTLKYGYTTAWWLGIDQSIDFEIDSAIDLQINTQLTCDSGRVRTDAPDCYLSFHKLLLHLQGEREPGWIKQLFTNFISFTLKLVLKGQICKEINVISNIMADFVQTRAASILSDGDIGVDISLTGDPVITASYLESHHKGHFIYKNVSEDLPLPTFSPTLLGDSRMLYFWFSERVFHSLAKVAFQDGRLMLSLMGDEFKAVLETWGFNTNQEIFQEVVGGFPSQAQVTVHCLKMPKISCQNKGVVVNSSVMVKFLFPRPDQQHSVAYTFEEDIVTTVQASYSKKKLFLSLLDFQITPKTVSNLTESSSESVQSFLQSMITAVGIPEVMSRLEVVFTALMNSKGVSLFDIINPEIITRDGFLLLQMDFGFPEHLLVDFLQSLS
Experiment: Inhibition of CETP in human plasma assessed as reduction in fluorescent intensity by fluorescence analysis

Row | Compound | IC50 [nM]
1 | CC[C@@H]1C[C@H](N(Cc2cc(Cl)cc(Cl)c2)c2nnn(C)n2)c2nc(C)ccc2N1C(=O)OC(C)C | 24
2 | CC[C@@H]1C[C@H](N(Cc2cc(C(F)(F)F)cc(C(F)(F)F)c2)C(C)=O)c2nc(OC)ccc2N1C(=O)OC(C)C (racemic) | 487
3 | CC[C@@H]1C[C@H](N(Cc2cc(C(F)(F)F)cc(C(F)(F)F)c2)c2nnnn2C)c2nc(C(F)(F)F)ccc2N1C(=O)OC(C)C (racemic) | > 50000
4 | CC[C@@H]1C[C@H](N(Cc2cc(Cl)cc(Cc3cncc(C(F)(F)F)c3)c2)c2nnn(C)n2)c2nc(C(F)(F)F)ccc2N1C(=O)OC(C)C | 207
5 | CC[C@@H]1C[C@H](N(Cc2cc(C(F)(F)F)cc(C(F)(F)F)c2)c2nnn(C)n2)c2nc(N)c(C)cc2N1C(=O)OC(C)C (racemic) | 106
6 | CC[C@@H]1C[C@H](N(Cc2cc(C(F)(F)F)cc(C(F)(F)F)c2)c2nnn(CCN)n2)c2nc(C(F)(F)F)ccc2N1C(=O)OC(C)C (racemic) | 66
7 | CC[C@@H]1C[C@H](N(Cc2cc(C(F)(F)F)cc(C(F)(F)F)c2)c2nnn(C)n2)c2nc(C(F)(F)F)ccc2N1C(=O)OCCO | 108
8 | CC[C@@H]1C[C@H](N(Cc2cc(C(F)(F)F)cc(C(F)(F)F)c2)c2nnn(C)n2)c2nc(N3CCNCC3)ccc2N1C(=O)OC(C)C | > 50000
9 | CC[C@@H]1C[C@H](N(Cc2cc(Cl)cc(C(F)(F)F)c2)c2nnn(C)n2)c2nc(C)ccc2N1C(=O)OC(C)C | 12
10 | CC[C@H]1C[C@@H](N(Cc2cc(C(F)(F)F)cc(C(F)(F)F)c2)c2nnn(C)n2)c2nc(C(F)(F)F)ccc2N1C(=O)OC(C)C | 7420
11 | CC[C@@H]1C[C@H](N(Cc2cc(C(F)(F)F)cc(C(F)(F)F)c2)c2nnn(C)n2)c2nc(N(C)C)ccc2N1C(=O)OC(C)C | 31
12 | CC[C@@H]1C[C@H](N(Cc2cc(C(F)(F)F)cc(C(F)(F)F)c2)c2nnn(C)n2)c2nc(C(F)(F)F)ccc2N1C(=O)OC | 197
13 | CC[C@@H]1C[C@H](N(Cc2cc(C(F)(F)F)cc(C(F)(F)F)c2)c2nnn(C)n2)c2nc(C)ccc2N1C(=O)OC(C)C (racemic) | 61
14 | CCOC(=O)N1c2ccc(C(F)(F)F)nc2[C@@H](N(Cc2cc(C(F)(F)F)cc(C(F)(F)F)c2)c2nnn(C)n2)C[C@H]1CC | 29
15 | CC[C@@H]1C[C@H](N(Cc2cc(C(F)(F)F)cc(C(F)(F)F)c2)c2nnn(C)n2)c2nc(C(F)(F)F)ccc2N1C(=O)OCCN(C)C | 572
16 | CC[C@@H]1C[C@H](N(Cc2cc(C(F)(F)F)cc(C(F)(F)F)c2)c2nnn(C)n2)c2nc(C(F)(F)F)ccc2N1CC(C)C | 205
17 | CC[C@@H]1C[C@H](N(Cc2cc(C(F)(F)F)cc(C(F)(F)F)c2)C(C)=O)c2nc(C)ccc2N1C(=O)OC(C)C (racemic) | 980

More lines, in order of falling IC50, values ahead:

Row | IC50 [nM] | Compound
18 | 44100 | CCC1CC(N(Cc2cc(C(F)(F)F)cc(C(F)(F)F)c2)C(C)=O)c2ccc(C)nc2N1C(=O)OC(C)C (stereo unspecified)
19 | 591 | CCNc1ccc2c(n1)[C@@H](N(Cc1cc(C(F)(F)F)cc(C(F)(F)F)c1)c1nnn(C)n1)C[C@@H](CC)N2C(=O)OC(C)C
20 | 396 | CC[C@@H]1C[C@H](N(Cc2cc(C(F)(F)F)cc(C(F)(F)F)c2)C(C)=O)c2nc(C(F)(F)F)ccc2N1C(=O)OC(C)C (racemic)
21 | 193 | CC[C@@H]1C[C@H](N(Cc2cc(C(F)(F)F)cc(C(F)(F)F)c2)c2nnn(C)n2)c2nc(C(F)(F)F)ccc2N1C(=O)c1c(C)cnn1C
22 | 154 | CC[C@@H]1C[C@H](N(Cc2cc(C(F)(F)F)cc(C(F)(F)F)c2)c2cc(C)no2)c2nc(C(F)(F)F)ccc2N1C(=O)OC(C)C (racemic)
23 | 98 | CC[C@@H]1C[C@H](N(Cc2cc(C(F)(F)F)cc(C(F)(F)F)c2)c2nnn(C)n2)c2nc(N)ccc2N1C(=O)OC(C)C
24 | 55 | CC[C@@H]1C[C@H](N(Cc2cc(C(F)(F)F)cc(C(F)(F)F)c2)c2nnn(C)n2)c2nc(C(F)(F)F)ccc2N1C(=O)C(C)C
25 | 38.4 | CC[C@@H]1C[C@H](N(Cc2cc(C(F)(F)F)cc(C(F)(F)F)c2)c2nnn(C)n2)c2nc(OC)c(C)cc2N1C(=O)OC(C)C (racemic)
26 | 30 | CC[C@@H]1C[C@H](N(Cc2cc(F)cc(C(F)(F)F)c2)c2nnn(C)n2)c2nc(C)ccc2N1C(=O)OC(C)C
